Each block holds one molecule with its values, some of them ahead of it. Active and inactive are the calls of the source.
Experiments:
Cytochrome P450 2C9 = Cytochrome P450 2C9 (Homo sapiens, UniProt P11712)
[1] = target: T1, Short transient receptor potential channel 4 (Mus musculus, UniProt Q9QUQ5); assay: calcium entry via TRPC4 opening agents – cell-based, HEK293 TRPC4/mu-opioid, Fluo-4 calcium, dose response (AID 434937); assay type: functional
T1 sequence (Q9QUQ5 whole entry): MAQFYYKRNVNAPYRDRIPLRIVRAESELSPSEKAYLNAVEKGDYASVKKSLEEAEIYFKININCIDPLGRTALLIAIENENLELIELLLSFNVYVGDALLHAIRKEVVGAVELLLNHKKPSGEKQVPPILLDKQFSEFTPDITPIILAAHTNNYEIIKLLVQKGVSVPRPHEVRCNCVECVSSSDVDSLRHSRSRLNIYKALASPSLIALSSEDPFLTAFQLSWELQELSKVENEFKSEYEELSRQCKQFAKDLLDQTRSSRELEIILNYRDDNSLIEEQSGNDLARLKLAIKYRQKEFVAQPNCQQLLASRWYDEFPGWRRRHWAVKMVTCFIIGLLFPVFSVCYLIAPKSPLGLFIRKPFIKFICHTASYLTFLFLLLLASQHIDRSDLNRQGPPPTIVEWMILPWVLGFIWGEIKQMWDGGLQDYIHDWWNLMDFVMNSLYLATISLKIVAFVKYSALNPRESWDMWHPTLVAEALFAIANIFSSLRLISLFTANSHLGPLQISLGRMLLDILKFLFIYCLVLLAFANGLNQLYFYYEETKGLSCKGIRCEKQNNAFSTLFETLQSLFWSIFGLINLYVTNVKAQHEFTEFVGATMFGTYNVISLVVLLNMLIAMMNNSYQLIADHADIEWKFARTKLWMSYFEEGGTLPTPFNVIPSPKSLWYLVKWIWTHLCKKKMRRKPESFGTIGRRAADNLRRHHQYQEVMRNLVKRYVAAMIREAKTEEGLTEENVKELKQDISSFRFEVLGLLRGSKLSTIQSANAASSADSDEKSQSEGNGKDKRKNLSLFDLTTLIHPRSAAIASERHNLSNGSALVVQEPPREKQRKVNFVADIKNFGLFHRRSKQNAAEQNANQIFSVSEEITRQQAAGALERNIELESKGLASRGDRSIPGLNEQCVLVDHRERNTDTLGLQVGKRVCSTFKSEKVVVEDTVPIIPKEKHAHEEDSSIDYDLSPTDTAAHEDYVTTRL

Cytochrome P450 2C19 = Cytochrome P450 2C19 (Homo sapiens, UniProt P33261); assay: Cytochrome panel assay with activity outcomes. Panel member name: p450-cyp2c19 Compounds with AC50 equal or less than 10 uM are considered active; assay type: functional
[2] = target: T2, Carboxy-terminal domain RNA polymerase II polypeptide A small phosphatase 1 (Homo sapiens, UniProt Q9GZU7); assay: CTDSP1 inhibitors, concentration-response, biochemical, absorbance readout, ultra-high-throughput screen actives (AID 540297); assay type: functional
T2 sequence (Q9GZU7 whole entry): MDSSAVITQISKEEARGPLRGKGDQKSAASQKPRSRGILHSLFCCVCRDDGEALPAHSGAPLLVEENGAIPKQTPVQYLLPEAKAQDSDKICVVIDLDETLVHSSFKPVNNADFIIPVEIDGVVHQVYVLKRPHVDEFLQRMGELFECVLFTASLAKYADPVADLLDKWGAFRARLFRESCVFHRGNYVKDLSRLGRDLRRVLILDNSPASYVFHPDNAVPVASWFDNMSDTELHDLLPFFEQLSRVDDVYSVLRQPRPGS

[3] = Trypanosoma cruzi growth suppression in host cells – NIH3T3 host cells, beta-gal luminescence, confirmation (AID 2044); assay type: functional, cell-based;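 also: intracellular parasites grown in NIH/3T3 mouse fibroblasts as host cells; luminescent beta-galactosidase reporter signal from transgenic T. cruzi replicating inside host cells; inhibitors lower the luminescence signal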
HEK293 [4] = assay: inhibition of NOD1-driven NF-kB reporter – cell-based, luminescence, uHTS, primary screen (AID 1578); assay type: functional; conditions: Homo sapiens
HEK293 [5] = assay: cells; assay type: functional, cell-based; conditions: Homo sapiens
[6] = target: Nucleotide-binding oligomerization domain-containing protein 2 (Homo sapiens, UniProt Q9HC29); assay: inhibition of NOD2-driven NF-kB reporter – cell-based, luminescence, uHTS, HEK293 (AID 1566); assay type: functional
[7] = NIH3T3 cell viability loss – ATP luminescence, mouse fibroblasts, counter-screen, dose response (AID 2010); assay type: functional, cell-based;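 also: cells exposed to compound for about 90 hours before reading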
HEK293 [8] = assay: NOD2 signaling inhibitors in MDP-stimulated cells, cell-based, uHTS, luminescence (AID 2001); assay type: functional; conditions: Homo sapiens
HEK293 [9] = assay: cells; assay type: functional, cell-based; conditions: Homo sapiens; remark: listed apart in the source

Cytochrome P450 2C9, sequence (P11712 whole entry): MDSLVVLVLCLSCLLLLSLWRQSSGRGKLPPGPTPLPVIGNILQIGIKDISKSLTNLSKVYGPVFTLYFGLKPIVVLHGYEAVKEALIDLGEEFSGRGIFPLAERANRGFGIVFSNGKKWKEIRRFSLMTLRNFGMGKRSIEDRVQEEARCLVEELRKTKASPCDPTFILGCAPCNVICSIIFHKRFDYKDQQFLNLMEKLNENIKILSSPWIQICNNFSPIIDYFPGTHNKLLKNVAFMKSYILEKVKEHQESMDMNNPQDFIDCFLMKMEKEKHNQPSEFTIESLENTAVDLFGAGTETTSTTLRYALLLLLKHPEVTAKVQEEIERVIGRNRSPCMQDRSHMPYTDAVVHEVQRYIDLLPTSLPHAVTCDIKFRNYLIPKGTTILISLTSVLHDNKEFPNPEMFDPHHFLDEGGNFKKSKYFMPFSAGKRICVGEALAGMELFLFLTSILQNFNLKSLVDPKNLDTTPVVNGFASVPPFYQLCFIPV
Nucleotide-binding oligomerization domain-containing protein 2, sequence (Q9HC29 whole entry, the tested form may be a part): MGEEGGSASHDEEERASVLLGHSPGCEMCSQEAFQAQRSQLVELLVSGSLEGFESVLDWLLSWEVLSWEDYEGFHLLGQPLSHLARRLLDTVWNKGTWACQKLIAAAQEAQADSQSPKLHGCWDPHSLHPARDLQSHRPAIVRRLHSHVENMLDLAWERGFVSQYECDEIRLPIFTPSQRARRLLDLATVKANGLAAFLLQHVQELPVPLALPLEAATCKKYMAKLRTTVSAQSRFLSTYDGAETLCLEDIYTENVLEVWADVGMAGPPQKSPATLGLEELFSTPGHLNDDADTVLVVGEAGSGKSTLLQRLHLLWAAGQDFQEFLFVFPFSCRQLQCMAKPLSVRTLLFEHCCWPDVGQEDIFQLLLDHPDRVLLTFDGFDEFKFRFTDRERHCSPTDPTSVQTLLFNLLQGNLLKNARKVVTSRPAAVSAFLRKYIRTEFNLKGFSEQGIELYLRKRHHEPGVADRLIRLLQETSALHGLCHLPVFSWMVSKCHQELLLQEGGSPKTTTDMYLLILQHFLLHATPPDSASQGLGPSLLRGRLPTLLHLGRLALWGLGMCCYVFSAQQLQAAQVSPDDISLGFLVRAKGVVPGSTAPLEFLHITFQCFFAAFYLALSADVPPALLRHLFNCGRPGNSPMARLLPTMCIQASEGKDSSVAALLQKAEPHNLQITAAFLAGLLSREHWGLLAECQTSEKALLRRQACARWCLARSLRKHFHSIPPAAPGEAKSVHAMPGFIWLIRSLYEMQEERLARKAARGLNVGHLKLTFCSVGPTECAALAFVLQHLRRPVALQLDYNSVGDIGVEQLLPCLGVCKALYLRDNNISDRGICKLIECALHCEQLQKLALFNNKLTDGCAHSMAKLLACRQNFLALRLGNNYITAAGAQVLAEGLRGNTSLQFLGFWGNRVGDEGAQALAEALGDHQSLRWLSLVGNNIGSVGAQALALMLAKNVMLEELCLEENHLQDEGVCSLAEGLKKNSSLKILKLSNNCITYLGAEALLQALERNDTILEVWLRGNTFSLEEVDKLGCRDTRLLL
Cytochrome P450 2C19, sequence (P33261 whole entry, the tested form may be a part): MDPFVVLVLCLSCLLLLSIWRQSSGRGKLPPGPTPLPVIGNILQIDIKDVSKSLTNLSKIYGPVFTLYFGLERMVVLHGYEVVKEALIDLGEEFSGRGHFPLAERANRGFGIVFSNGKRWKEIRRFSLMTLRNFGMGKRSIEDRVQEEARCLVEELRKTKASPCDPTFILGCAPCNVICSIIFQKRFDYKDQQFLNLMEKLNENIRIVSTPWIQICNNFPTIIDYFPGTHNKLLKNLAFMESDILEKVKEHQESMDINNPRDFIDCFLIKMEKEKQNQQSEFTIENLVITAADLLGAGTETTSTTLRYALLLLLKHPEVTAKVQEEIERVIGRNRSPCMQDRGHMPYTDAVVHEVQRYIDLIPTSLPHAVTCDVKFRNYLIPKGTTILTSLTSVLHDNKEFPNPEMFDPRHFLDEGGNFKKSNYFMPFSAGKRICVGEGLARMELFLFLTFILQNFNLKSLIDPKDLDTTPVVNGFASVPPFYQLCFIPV

Structure (SMILES): O=S(=O)(c1ccc(Cl)cc1)N1CCN2CCCC2C1 (stereo not given)
EC50 [1]: 4.73 µM (active)

Structure (SMILES): CCc1cccc(CC)c1N=C(S)NCC(c1cccnc1)N(C)C (stereo not given)
EC50 [1]: 0.168 µM (active)

Structure (SMILES): CCCC12CN3CC(CCC)(CN(C1)C3C(O)C(O)C(O)CO)C2=O (stereo not given)
AC50 (Cytochrome P450 2C19): inconclusive
AC50 (Cytochrome P450 2C9): inconclusive

Structure (SMILES): CCNc1nc(NCC)n2c(SCC(=O)Nc3ccc(OC(F)F)cc3)nnc2n1
IC50 [2]: 9.83 µM (active)

Structure (SMILES): COc1cc(OC)c(OC)cc1/C=C1\CCC/C(=C\c2cc(OC)c(OC)cc2OC)C1=O
EC50 [3]: 1.51 µM (active)
EC50 (HEK293 [4]): 15.5 µM (active)
IC50 (HEK293 [5]): 18.1 µM (active)
EC50 [6]: 13 µM (active)
EC50 [7]: 6.67 µM (active)
IC50 (HEK293 [8]): 6.27 µM (active)
IC50 (HEK293 [9]): 5.03 µM (active)

Now from value to molecule:

AC50 (Cytochrome P450 2C9): inconclusive
Structure (SMILES): CCc1ccccc1N=C(S)NCc1ccc2c(c1)OCO2

EC50 [1]: 5.31 µM (active)
Structure (SMILES): CN(CCc1nc2cc(Cl)ccc2[nH]1)Cc1nc(CC2CC2)no1

EC50 [1]: 1.19 µM (active)
Structure (SMILES): Cc1cc(NC(=O)CN2CCc3ccccc3C2)nc2c1c(=O)oc1ccccc12
